Tested on: 188146-221-R-J1-PDC complex spheroid viability
Experiment: Anticancer human tumor 188146-221-R-J1-PDC patient-derived colon adenocarcinoma cell line growth inhibition [POLQ]
Settings: for IC50: curve of first compound; for viability, T/C: stronger effect = lower value
Method in brief: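 Complex spheroid viability model combining PDC tumour cells with endothelial (HUVEC) and MSC stromal cells. Novobiocin, ART-558 or RP6685 were tested singly and in combination with standard and investigational anticancer drugs. Each was titrated in half-log steps from near clinical Cmax, or from 10 microM where Cmax was unknown.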

[1] = second compound 0.0316 µM, first compound 0.0316 µM
[2] = second compound 0.0316 µM, first compound 0.1 µM
[3] = second compound 0.0316 µM, first compound 0.316 µM
[4] = second compound 0.0316 µM, first compound 1 µM
[5] = second compound 0.0316 µM, first compound 3.16 µM
[6] = second compound 0.0316 µM, first compound 10 µM
[7] = second compound 0.1 µM, first compound 0.0316 µM
[8] = second compound 0.1 µM, first compound 0.1 µM
[9] = second compound 0.1 µM, first compound 0.316 µM
[10] = second compound 0.1 µM, first compound 1 µM
[11] = second compound 0.1 µM, first compound 3.16 µM
[12] = second compound 0.1 µM, first compound 10 µM
[13] = second compound 0.316 µM, first compound 0.0316 µM
[14] = second compound 0.316 µM, first compound 0.1 µM
[15] = second compound 0.316 µM, first compound 0.316 µM
[16] = second compound 0.316 µM, first compound 1 µM
[17] = second compound 0.316 µM, first compound 3.16 µM
[18] = second compound 0.316 µM, first compound 10 µM
[19] = second compound 1 µM, first compound 0.0316 µM
[20] = second compound 1 µM, first compound 0.1 µM
[21] = second compound 1 µM, first compound 0.316 µM
[22] = second compound 1 µM, first compound 1 µM
[23] = second compound 1 µM, first compound 3.16 µM
[24] = second compound 1 µM, first compound 10 µM
[25] = second compound 3.16 µM, first compound 0.0316 µM
[26] = second compound 3.16 µM, first compound 0.1 µM
[27] = second compound 3.16 µM, first compound 0.316 µM
[28] = second compound 3.16 µM, first compound 1 µM
[29] = second compound 3.16 µM, first compound 3.16 µM
[30] = second compound 3.16 µM, first compound 10 µM
[31] = second compound 10 µM, first compound 0.0316 µM
[32] = second compound 10 µM, first compound 0.1 µM
[33] = second compound 10 µM, first compound 0.316 µM
[34] = second compound 10 µM, first compound 1 µM
[35] = second compound 10 µM, first compound 3.16 µM
[36] = second compound 10 µM, first compound 10 µM
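Also: spheroids exposed to compounds for seven days.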
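For viability, T/C in this document: 100% = DMSO vehicle control viability.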

## CC(C)n1c(=O)n(C)c2cnc3cc(F)c(-c4ccc(OCCCN5CCCCC5)nc4)cc3c21 + Cc1cccc(N(C)C(=O)C2C(O)CCN2c2nc(C)cc(C(F)(F)F)c2C#N)c1
Second compound 0.0316 µM
  IC50: > 10 µM
Second compound 0.1 µM
  IC50: > 10 µM
Second compound 0.316 µM
  IC50: > 10 µM
Second compound 1 µM
  IC50: > 10 µM
Second compound 3.16 µM
  IC50: > 10 µM
Second compound 10 µM
  IC50: > 10 µM
[1]
  viability, T/C: 110%
[2]
  viability, T/C: 97.9%
[3]
  viability, T/C: 100%
[4]
  viability, T/C: 106%
[5]
  viability, T/C: 102%
[6]
  viability, T/C: 83.7%
[7]
  viability, T/C: 109%
[8]
  viability, T/C: 98.5%
[9]
  viability, T/C: 107%
[10]
  viability, T/C: 113%
[11]
  viability, T/C: 90.5%
[12]
  viability, T/C: 89.1%
[13]
  viability, T/C: 108%
[14]
  viability, T/C: 115%
[15]
  viability, T/C: 98.7%
[16]
  viability, T/C: 100%
[17]
  viability, T/C: 85.4%
[18]
  viability, T/C: 85.9%
[19]
  viability, T/C: 111%
[20]
  viability, T/C: 107%
[21]
  viability, T/C: 104%
[22]
  viability, T/C: 93%
[23]
  viability, T/C: 88.6%
[24]
  viability, T/C: 86.5%
[25]
  viability, T/C: 103%
[26]
  viability, T/C: 104%
[27]
  viability, T/C: 100%
[28]
  viability, T/C: 82%
[29]
  viability, T/C: 99.6%
[30]
  viability, T/C: 81.8%
[31]
  viability, T/C: 91.6%
[32]
  viability, T/C: 85.8%
[33]
  viability, T/C: 101%
[34]
  viability, T/C: 97.4%
[35]
  viability, T/C: 93.7%
[36]
  viability, T/C: 95%

## O=C(Nc1ccc(O)c(NS(=O)(=O)c2ccc(F)cc2)c1)c1ccc(-c2ccccc2)cc1 + Nc1ccc(C#CCN(C(=O)Cc2ncc(C(F)(F)F)cc2C(F)(F)F)c2ccc(F)cc2)nn1
Second compound 0.0316 µM
  IC50: > 10 µM
Second compound 0.1 µM
  IC50: > 10 µM
Second compound 0.316 µM
  IC50: > 10 µM
Second compound 1 µM
  IC50: > 10 µM
Second compound 3.16 µM
  IC50: > 10 µM
Second compound 10 µM
  IC50: > 10 µM
[1]
  viability, T/C: 104%
[2]
  viability, T/C: 100%
[3]
  viability, T/C: 88%
[4]
  viability, T/C: 109%
[5]
  viability, T/C: 92.7%
[6]
  viability, T/C: 72%
[7]
  viability, T/C: 105%
[8]
  viability, T/C: 119%
[9]
  viability, T/C: 109%
[10]
  viability, T/C: 104%
[11]
  viability, T/C: 88.9%
[12]
  viability, T/C: 63.6%
[13]
  viability, T/C: 119%
[14]
  viability, T/C: 100%
[15]
  viability, T/C: 93.5%
[16]
  viability, T/C: 92%
[17]
  viability, T/C: 93.6%
[18]
  viability, T/C: 60.1%
[19]
  viability, T/C: 124%
[20]
  viability, T/C: 112%
[21]
  viability, T/C: 108%
[22]
  viability, T/C: 79.7%
[23]
  viability, T/C: 97.8%
[24]
  viability, T/C: 73.2%
[25]
  viability, T/C: 111%
[26]
  viability, T/C: 110%
[27]
  viability, T/C: 118%
[28]
  viability, T/C: 99.9%
[29]
  viability, T/C: 107%
[30]
  viability, T/C: 60.1%
[31]
  viability, T/C: 111%
[32]
  viability, T/C: 118%
[33]
  viability, T/C: 110%
[34]
  viability, T/C: 99.1%
[35]
  viability, T/C: 110%
[36]
  viability, T/C: 68.6%

## C=CCn1c(=O)c2cnc(Nc3ccc(N4CCN(C)CC4)cc3)nc2n1-c1cccc(C(C)(C)O)n1 + COC1C(OC(N)=O)C(O)C(Oc2ccc3c(O)c(NC(=O)c4ccc(O)c(CC=C(C)C)c4)c(=O)oc3c2C)OC1(C)C
Second compound 0.0316 µM
  IC50: > 1 µM
Second compound 0.1 µM
  IC50: 0.933 µM
Second compound 0.316 µM
  IC50: > 1 µM
Second compound 1 µM
  IC50: > 1 µM
Second compound 3.16 µM
  IC50: > 1 µM
Second compound 10 µM
  IC50: 0.908 µM
Second compound 0.0316 µM, first compound 0.00316 µM
  viability, T/C: 106%
Second compound 0.0316 µM, first compound 0.01 µM
  viability, T/C: 99.2%
[1]
  viability, T/C: 103%
[2]
  viability, T/C: 101%
[3]
  viability, T/C: 98%
[4]
  viability, T/C: 51.5%
Second compound 0.1 µM, first compound 0.00316 µM
  viability, T/C: 111%
Second compound 0.1 µM, first compound 0.01 µM
  viability, T/C: 106%
[7]
  viability, T/C: 101%
[8]
  viability, T/C: 98%
[9]
  viability, T/C: 91.5%
[10]
  viability, T/C: 46.8%
Second compound 0.316 µM, first compound 0.00316 µM
  viability, T/C: 85.1%
Second compound 0.316 µM, first compound 0.01 µM
  viability, T/C: 106%
[13]
  viability, T/C: 96.5%
[14]
  viability, T/C: 101%
[15]
  viability, T/C: 97.6%
[16]
  viability, T/C: 56.3%
Second compound 1 µM, first compound 0.00316 µM
  viability, T/C: 108%
Second compound 1 µM, first compound 0.01 µM
  viability, T/C: 100%
[19]
  viability, T/C: 102%
[20]
  viability, T/C: 95.9%
[21]
  viability, T/C: 87.7%
[22]
  viability, T/C: 55.2%
Second compound 3.16 µM, first compound 0.00316 µM
  viability, T/C: 102%
Second compound 3.16 µM, first compound 0.01 µM
  viability, T/C: 98.9%
[25]
  viability, T/C: 108%
[26]
  viability, T/C: 98.4%
[27]
  viability, T/C: 98%
[28]
  viability, T/C: 56.3%
Second compound 10 µM, first compound 0.00316 µM
  viability, T/C: 109%
Second compound 10 µM, first compound 0.01 µM
  viability, T/C: 96.9%
[31]
  viability, T/C: 100%
[32]
  viability, T/C: 100%
[33]
  viability, T/C: 98.1%
[34]
  viability, T/C: 45.6%

## CCCS(=O)(=O)Nc1ccc(F)c(C(=O)c2c[nH]c3ncc(-c4ccc(Cl)cc4)cc23)c1F + COC1C(OC(N)=O)C(O)C(Oc2ccc3c(O)c(NC(=O)c4ccc(O)c(CC=C(C)C)c4)c(=O)oc3c2C)OC1(C)C
Second compound 0.0316 µM
  IC50: 5.54 µM
Second compound 0.1 µM
  IC50: 5.87 µM
Second compound 0.316 µM
  IC50: 4.88 µM
Second compound 1 µM
  IC50: 5.62 µM
Second compound 3.16 µM
  IC50: 7.78 µM
Second compound 10 µM
  IC50: 5.25 µM
[1]
  viability, T/C: 106%
[2]
  viability, T/C: 92%
[3]
  viability, T/C: 77.3%
[4]
  viability, T/C: 76.3%
[5]
  viability, T/C: 79.8%
[6]
  viability, T/C: 27.5%
[7]
  viability, T/C: 110%
[8]
  viability, T/C: 102%
[9]
  viability, T/C: 89%
[10]
  viability, T/C: 89.8%
[11]
  viability, T/C: 76.9%
[12]
  viability, T/C: 29.7%
[13]
  viability, T/C: 100%
[14]
  viability, T/C: 89.5%
[15]
  viability, T/C: 94.5%
[16]
  viability, T/C: 79.7%
[17]
  viability, T/C: 65.3%
[18]
  viability, T/C: 26.8%
[19]
  viability, T/C: 100%
[20]
  viability, T/C: 96.2%
[21]
  viability, T/C: 85.4%
[22]
  viability, T/C: 84.7%
[23]
  viability, T/C: 75.1%
[24]
  viability, T/C: 27.4%
[25]
  viability, T/C: 102%
[26]
  viability, T/C: 103%
[27]
  viability, T/C: 92.2%
[28]
  viability, T/C: 72.3%
[29]
  viability, T/C: 80.9%
[30]
  viability, T/C: 41.2%
[31]
  viability, T/C: 102%
[32]
  viability, T/C: 90.2%
[33]
  viability, T/C: 96.3%
[34]
  viability, T/C: 78.2%
[35]
  viability, T/C: 72.7%
[36]
  viability, T/C: 26%

— PubChem BioAssay AID1963851 (Molecular Pharmacology Branch, DTP, NCI, 2024)
